# System: STC-1 cells
# Assay: CCK release by STC-1 cells (competitive enzyme assay of the cell-conditioned medium)
# Type: cell-based, mouse
# Conditions: positive control, 100 nM PMA in 2 mg/ml BSA, 4 hour
# Experimental: The protein hydrolysates were added to the media of STC-1 cells at a protein concentration of approximately 2 mg/mL, and the enzyme controls were added at equivalent dilutions of the control reaction mixture (which included the enzyme(s) in the absence of protein substrate). Plotted is the % CCK released into the media of STC-1 cells stimulated by the different protein hydrolysates generated by the pepsin or pepsin and pancreatin enzymes, compared to the control 100 nM PMA (which was set as 100%). Cell culture media alone and 2 mg/mL bovine serum albumin (BSA) were used as negative background controls. The PMA control consisted of 100 nM PMA in cell culture media containing 2 mg/ml BSA. % CCK released into the cell culture media was calculated as follows: […]
# It is known that protein, in general, stimulates the release of CCK by enteroendocrine cells in the intestinal track of animals, including humans (Liddle, R. A., et al., (1986) Proteins But Not Amino Acids, Carbohydrates, or Fats Stimulate Cholecystokinin Secretion in the Rat. Am. J. Physiol. 251 (Gastrointest. Liver Physiol. 14): G243-G248). […] Degree of hydrolysis was determined by the reaction of primary amine groups with o-phthalaldehyde (OPA) vs. total amount of primary amine present in sample after acid hydrolysis (110° C. for 24 hours) (known as, the “OPA method”). […]
smiles,measurement,value
"CCCCCCCCCCCCCC(=O)O[C@@H]1[C@@H](C)[C@@]2(O)[C@@H](C=C(CO)C[C@]3(O)C(=O)C(C)=C[C@@H]23)[C@@H]2C(C)(C)[C@]12OC(C)=O [PMA, phorbol 12-myristate-13-acetate]",CCK Release (ng/ml) mean ± sem,0.171 ± 0.003 ng/mL
